Columns and labels:
MPER-PDGFR = experiment: Cell-lysate ELISA, MPER-PDGFR; type: binding, HIV-1; details: 293T cell lysates, 20 nM IgG or Fab, normalized to 20 nM 17/9 IgG
HIV-1 = details: cited from earlier work
[1] = system: simian immunodeficiency virus-HIV chimera; details: rhesus macaques; cited from earlier work
From the text: (§1) The 10E8 antibody achieves potent and broad HIV-1 neutralization by targeting the membrane-proximal external region of gp41 (MPER)[1][2]. […] The exceptionally high degree of conservation of the MPER sequence[4][5] justifies immunotherapeutic approaches based on the 10E8 antibody.

[2] = system: SIVs that infect chimpanzees and gorillas; details: cited from earlier work
From the text: as §1

MPER-TM1 = experiment: Cell-lysate ELISA, MPER-TM1; type: binding, HIV-1; details: 293T cell lysates, 20 nM IgG or Fab, normalized to 20 nM 17/9 IgG
[3] = target: HIV-1 Env of JRCSF on pseudovirus particles (HIV-1 group M subtype B, isolate JRCSF, UniProt P20871); experiment: far-Western, overlay or dot blot; dot blot: decreasing amounts of PsV spotted on nitrocellulose, probed with Fab (0.2 ug/ml) in 5% milk in PBS, 1 h, room temperature; details: one partner purified

Molecule | binding to MPER-PDGFR (MPER-PDGFR) | mean IC50 (HIV-1) | protection against infection [1] | neutralization potency [2] | binding to MPER-TM1 (MPER-TM1) | binding result [3]
10E8 IgG: broadly neutralizing anti-HIV-1 gp41 MPER antibody 10E8, IgG | poor ligand | below 1 μg/mL | complete protection | nanomolar potency | bind tightly | –
10E8 WT Fab: recombinant unmodified Fab of anti-HIV-1 gp41 MPER antibody 10E8 | poor ligand | – | – | – | comparable degree of binding | –
10E8 Fab (Fab, V domains shown, also called Fab 10E8; WT) VH: EVQLVESGGGLVKPGGSLRLSCSASGFDFDNAWMTWVRQPPGKGLEWVGRITGPGEGWSVDYAAPVEGRFTISRLNSINFLYLEMNNLRMEDSGLYFCARTGKYYDFWSGYPPGEEYFQDWGRGTLVTVSS VL: SYELTQETGVSVALGRTVTITCRGDSLRSHYASWYQKKPGQAPILLFYGKNNRPSGVPDRFSGSASGNRASLTISGAQAEDDAEYYCSSRDKSGSRLSVFGGGTKLTVL | – | – | – | – | – | binds

— publication PMC5131266 (Scientific Reports, 2016)
